Source: patent US20060100243A1 (priority 2004, published 2006)
Entries after “also recorded” stand apart in the source; their conditions may differ. Like-named read-outs stand apart in the source and are kept apart here.

How the values were obtained:
[1] = biological target: T1, recombinant human dopamine transporter (Homo sapiens, UniProt Q01959); test: dopamine reuptake inhibition in HEK 293 cells; format: cell-based; settings: for IC50: HEK 293 cells; for selectivity for the dopamine transporter over the norepinephrine transporter: in words, from binding and reuptake values; for NE/DA REUPTAKE: ratio of NE/DA reuptake IC50, selectivity for dopamine over norepinephrine transporter
T1 construct: expressed in transfected cells

[2] = biological target: T2, recombinant human serotonin transporter (Homo sapiens, UniProt P31645); test: biochemical; format: binding
T2 construct: expressed in transfected cells

[3] = biological target: T2, recombinant human serotonin transporter; test: serotonin (5HT) reuptake inhibition in HEK 293 cells; format: cell-based
[4] = biological target: T3, recombinant human norepinephrine transporter (Homo sapiens, UniProt P23975); test: cell-based
T3 construct: expressed in transfected cells

[5] = biological target: T1, recombinant human dopamine transporter; test: [125I]RTI-55 binding, dopamine transporter in HEK 293 cells; settings: for Ki: HEK 293 cells; for potency at binding to the dopamine transporter and blocking dopamine reuptake: in words, compared with MPH / other samples
[6] = biological target: T3, recombinant human norepinephrine transporter; test: biochemical; format: binding
[7] = DOPAMINE DA REUPTAKE (IC50), RS/SR racemates table
[8] = RS/SR racemates table, HEK 293 cells, read-out: SEROTONIN [I125]-RTI-55 BINDING (Ki)
[9] = SEROTONIN 5HT REUPTAKE (IC50), RS/SR racemates table, HEK 293 cells
[10] = DOPAMINE [I125]-RTI-55 BINDING (Ki), RS/SR racemates table
[11] = NOREPINEPHRINE [I125]-RTI-55 BINDING (Ki)
[12] = DOPAMINE DA REUPTAKE (IC50), RR/SS racemates table
[13] = RR/SS racemates table, HEK 293 cells, read-out: SEROTONIN [I125]-RTI-55 BINDING (Ki)
[14] = DOPAMINE [I125]-RTI-55 BINDING (Ki), RR/SS racemates table
[15] = RS/SR racemates table, read-out: DOPAMINE DA REUPTAKE (IC50)
[16] = RS/SR racemates table, HEK 293 cells, read-out: NOREPINEPHRINE NE REUPTAKE (IC50)
[17] = RS/SR racemates table, read-out: DOPAMINE [I125]-RTI-55 BINDING (Ki)
[18] = RS/SR racemates table, HEK 293 cells, read-out: NOREPINEPHRINE [I125]-RTI-55 BINDING (Ki)
[19] = RR/SS racemates table, read-out: DOPAMINE DA REUPTAKE (IC50)
[20] = RR/SS racemates table, HEK 293 cells, read-out: NOREPINEPHRINE NE REUPTAKE (IC50)
[21] = RR/SS racemates table, read-out: DOPAMINE [I125]-RTI-55 BINDING (Ki)
[22] = RR/SS racemates table, HEK 293 cells, read-out: NOREPINEPHRINE [I125]-RTI-55 BINDING (Ki)
[23] = SEROTONIN [I125]-RTI-55 BINDING (Ki)
[24] = SEROTONIN 5HT REUPTAKE (IC50), RR/SS racemates table, HEK 293 cells
[25] = RR/SS racemates table, HEK 293 cells, read-out: SEROTONIN 5HT REUPTAKE (IC50)

T3 sequence (P23975 whole entry): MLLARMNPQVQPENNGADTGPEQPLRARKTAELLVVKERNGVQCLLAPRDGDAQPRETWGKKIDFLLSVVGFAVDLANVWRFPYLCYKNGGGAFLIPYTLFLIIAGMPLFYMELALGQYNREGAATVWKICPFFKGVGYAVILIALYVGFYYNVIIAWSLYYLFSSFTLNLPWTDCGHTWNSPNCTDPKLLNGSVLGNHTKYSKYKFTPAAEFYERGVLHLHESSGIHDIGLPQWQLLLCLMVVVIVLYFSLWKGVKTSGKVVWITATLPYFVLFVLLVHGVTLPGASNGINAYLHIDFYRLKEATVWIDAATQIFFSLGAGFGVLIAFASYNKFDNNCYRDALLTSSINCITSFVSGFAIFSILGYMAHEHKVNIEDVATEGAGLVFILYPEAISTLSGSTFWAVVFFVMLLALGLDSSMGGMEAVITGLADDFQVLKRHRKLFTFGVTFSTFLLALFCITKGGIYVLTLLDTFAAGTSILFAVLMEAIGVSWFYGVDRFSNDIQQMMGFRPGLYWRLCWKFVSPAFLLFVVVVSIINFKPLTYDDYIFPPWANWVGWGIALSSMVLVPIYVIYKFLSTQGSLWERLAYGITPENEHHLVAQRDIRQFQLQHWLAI
T2 sequence (P31645 whole entry): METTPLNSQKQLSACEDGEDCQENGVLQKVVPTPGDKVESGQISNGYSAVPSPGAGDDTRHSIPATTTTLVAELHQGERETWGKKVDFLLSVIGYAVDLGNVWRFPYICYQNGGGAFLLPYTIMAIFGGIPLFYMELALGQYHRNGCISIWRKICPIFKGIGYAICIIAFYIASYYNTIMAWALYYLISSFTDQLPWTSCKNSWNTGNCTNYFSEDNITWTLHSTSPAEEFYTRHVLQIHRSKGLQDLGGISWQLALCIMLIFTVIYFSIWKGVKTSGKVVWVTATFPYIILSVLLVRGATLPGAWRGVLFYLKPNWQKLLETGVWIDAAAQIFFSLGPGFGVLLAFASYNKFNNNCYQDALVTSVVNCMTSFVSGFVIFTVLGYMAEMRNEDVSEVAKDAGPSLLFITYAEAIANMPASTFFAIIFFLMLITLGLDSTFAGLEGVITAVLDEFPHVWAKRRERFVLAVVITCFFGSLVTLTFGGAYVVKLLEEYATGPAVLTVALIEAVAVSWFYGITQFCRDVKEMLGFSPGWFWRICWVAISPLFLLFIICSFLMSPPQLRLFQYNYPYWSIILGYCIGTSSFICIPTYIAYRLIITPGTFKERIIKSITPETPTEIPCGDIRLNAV
T1 sequence (Q01959 whole entry): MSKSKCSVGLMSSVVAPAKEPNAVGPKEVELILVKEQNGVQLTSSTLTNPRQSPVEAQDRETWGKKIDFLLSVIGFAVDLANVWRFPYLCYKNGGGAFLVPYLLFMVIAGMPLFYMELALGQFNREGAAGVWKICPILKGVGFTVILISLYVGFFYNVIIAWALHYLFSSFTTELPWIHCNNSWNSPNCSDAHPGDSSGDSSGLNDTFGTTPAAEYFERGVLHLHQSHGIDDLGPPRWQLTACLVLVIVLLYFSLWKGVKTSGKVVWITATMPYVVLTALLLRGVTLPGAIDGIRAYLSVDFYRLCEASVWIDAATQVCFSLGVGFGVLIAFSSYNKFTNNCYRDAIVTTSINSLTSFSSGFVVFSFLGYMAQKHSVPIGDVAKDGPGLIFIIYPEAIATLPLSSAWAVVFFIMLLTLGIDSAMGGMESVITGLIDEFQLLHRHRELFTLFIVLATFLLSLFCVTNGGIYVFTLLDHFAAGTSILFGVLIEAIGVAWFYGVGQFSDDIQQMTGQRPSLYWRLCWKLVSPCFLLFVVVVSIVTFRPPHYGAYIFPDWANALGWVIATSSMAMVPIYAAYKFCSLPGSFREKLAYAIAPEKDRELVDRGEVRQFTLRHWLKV

## CCCC(c1ccc(Cl)cc1)C1CCCCN1 (racemic) [EE]
[1]; [7]
  IC50: 450 ± 60 nM
[2]; [8]
  Ki: 3200 ± 1100 nM
[3]; [9]
  IC50: 1.3 ± 0.007 µM
[4]; NORE[…] REUPTAKE (IC50)
  IC50: 200 ± 50 nM
[5]; [10]
  Ki: 380 ± 40 nM
[6]; [11]
  Ki: 1.4 ± 0.4 µM

## CC(C)(C)CC(c1ccc(Cl)cc1)C1CCCCN1 (racemic) [FF]
[1]; [7]
  IC50: 670 ± 260 nM
[2]; [8]
  Ki: 3500 ± 1000 nM
[3]; [9]
  IC50: 1.8 ± 0.6 µM
[4]; NORE[…] REUPTAKE (IC50)
  IC50: 730 ± 250 nM
[5]; [10]
  Ki: 600 ± 40 nM

## CC(C)(C)CC(c1ccc(Cl)cc1)C1CCCCN1 (racemic) [F]
[1]; [12]
  IC50: 60 ± 2 nM
[1]
  selectivity for the dopamine transporter over the norepinephrine transporter: enhanced selectivity
  NE/DA REUPTAKE: 8.7
[2]; [13]
  Ki: 3900 ± 500 nM
[4]; NORE[…] REUPTAKE (IC50)
  IC50: 520 ± 110 nM
[5]; [14]
  Ki: 120 ± 40 nM
[6]; [11]
  Ki: 1.4 ± 0.4 µM

## Clc1ccc(C(CC2CCCC2)C2CCCCN2)cc1 (racemic) [LL]
[1]; [15]
  IC50: 180 ± 20 nM
[4]; [16]
  IC50: 730 ± 230 nM
[5]; [17]
  Ki: 310 ± 80 nM
[6]; [18]
  Ki: 2.6 ± 0.8 µM

## Clc1ccc(C(CC2CCCC2)C2CCCCN2)cc1 (racemic) [L]
[1]; [19]
  IC50: 21 ± 1 nM
[4]; [20]
  IC50: 310 ± 40 nM
[5]; [21]
  Ki: 9.4 ± 1.5 nM
[6]; [22]
  Ki: 1.7 ± 0.6 µM

## CC(C)CC(c1ccc(C(C)C)cc1)C1CCCCN1 (racemic) [PP]
[2]; [23]
  Ki: 1700 ± 500 nM
[3]; [9]
  IC50: 1.7 ± 0.1 µM
[6]; [11]
  Ki: 3.2 ± 0.6 µM

## CC(C)CC(c1ccc(C(C)C)cc1)C1CCCCN1 (racemic) [P]
[1]; [12]
  IC50: 4000 ± 400 nM
[1]
  NE/DA REUPTAKE: 1.8
[2]; [23]
  Ki: 3300 ± 600 nM
[3]; [24]
  IC50: 4.7 ± 0.7 µM
[4]; NORE[…] REUPTAKE (IC50)
  IC50: 7100 ± 1800 nM
[5]; [14]
  Ki: 3300 ± 600 nM
[6]; [11]
  Ki: 2.5 ± 0.6 µM

## CC(C)CC(c1ccc(Cl)cc1)C1CCCCN1 (racemic) [Sample DD]
[1]; [15]
  IC50: 380 ± 130 nM
[4]; [16]
  IC50: 750 ± 170 nM
[5]; [17]
  Ki: 170 ± 50 nM
[5]
  potency at binding to the dopamine transporter and blocking dopamine reuptake: inactivity
[6]; [18]
  Ki: 4.5 ± 1.5 µM

## CCCC(c1ccc(Cl)cc1)C1CCCCN1 (racemic) [Sample E]
[1]; [19]
  IC50: 7.4 ± 0.4 nM
[1]
  selectivity for the dopamine transporter over the norepinephrine transporter: enhanced selectivity
  NE/DA REUPTAKE: 6.8
[2]; [13]
  Ki: 2700 ± 600 nM
[3]; [25]
  IC50: 2.9 ± 1.1 µM
[4]; [20]
  IC50: 50 ± 15 nM
[5]; [21]
  Ki: 11 ± 3 nM
[5]
  potency at binding to the dopamine transporter and blocking dopamine reuptake: enhanced potency; also recorded: most potent
[6]; [22]
  Ki: 0.2 ± 0.08 µM

## CC(C)CC(c1ccc(Cl)c(Cl)c1)C1CCCCN1 (racemic) [Sample NN]
[1]; [15]
  IC50: 13 ± 3 nM
[2]; [8]
  Ki: 450 ± 40 nM
[3]; RS/SR racemates table, HEK 293 cells, read-out: SEROTONIN 5HT REUPTAKE (IC50)
  IC50: 0.29 ± 0.06 µM
[4]; [16]
  IC50: 19 ± 3 nM
[5]; [17]
  Ki: 31 ± 11 nM
[5]
  potency at binding to the dopamine transporter and blocking dopamine reuptake: considerably more potent; also recorded: most potent
[6]; [18]
  Ki: 0.12 ± 0.03 µM

## CC(C)CC(c1ccc(Cl)c(Cl)c1)C1CCCCN1 (racemic) [Sample N]
[1]; [19]
  IC50: 5.5 ± 1.3 nM
[1]
  NE/DA REUPTAKE: 1.6
[2]; [13]
  Ki: 1600 ± 100 nM
[3]; [25]
  IC50: 1.1 ± 0.3 µM
[4]; [20]
  IC50: 9 ± 1 nM
[5]; [21]
  Ki: 1 ± 0.5 nM
[5]
  potency at binding to the dopamine transporter and blocking dopamine reuptake: enhanced potency; also recorded: most potent
[6]; [22]
  Ki: 0.025 ± 0.009 µM

## COC(=O)C(c1ccc(Cl)cc1)C1CCCCN1 (single isomer, unassigned) [AA]
[1]; [7]
  IC50: 2700 ± 1000 nM
[2]; [23]
  Ki: 5900 ± 200 nM
[3]; SEROTONIN 5HT REUPTAKE (IC50), RS/SR racemates table, in μM
  IC50: > 10 µM
[4]; [16]
  IC50: 1400 ± 400 nM
[5]; [10]
  Ki: 2000 ± 600 nM

## COC(=O)C(c1ccc(Cl)cc1)C1CCCCN1 (single isomer, unassigned) [A]
[1]; [12]
  IC50: 11 ± 2 nM
[1]
  NE/DA REUPTAKE: 1.0
[2]; [23]
  Ki: 6000 ± 100 nM
[4]; [20]
  IC50: 11 ± 3 nM
[5]; [14]
  Ki: 25 ± 8 nM
[6]; [22]
  Ki: 0.11 ± 0.04 µM

## CCC(c1ccc(Cl)cc1)C1CCCCN1 (single isomer, unassigned) [BB]
[1]; [7]
  IC50: 2200 ± 300 nM
[2]; [23]
  Ki: 5700 ± 800 nM
[3]; [9]
  IC50: 2 ± 0.6 µM
[5]; [10]
  Ki: 3500 ± 1000 nM
[6]; RS/SR racemates table, in μM, read-out: NOREPINEPHRINE [I125]-RTI-55 BINDING (Ki)
  Ki: > 10 µM

## CCC(c1ccc(Cl)cc1)C1CCCCN1 (single isomer, unassigned) [B]
[1]; [12]
  IC50: 23 ± 5 nM
[1]
  selectivity for the dopamine transporter over the norepinephrine transporter: enhanced selectivity
  NE/DA REUPTAKE: 9.1
[2]; [23]
  Ki: 7800 ± 800 nM
[3]; [24]
  IC50: 2.4 ± 0.4 µM
[4]; [20]
  IC50: 210 ± 30 nM
[5]; [14]
  Ki: 37 ± 10 nM
[6]; [22]
  Ki: 0.36 ± 0.06 µM
